Data on twelve compounds can be found in ChEMBL document CHEMBL5126556, “Recent advances in natural anti-obesity compounds and derivatives based on in vivo evidence: A mini-review” (Eur J Med Chem, 2022).

The nature of data set [1]: Acute toxicity in po dosed C57BL/6J mouse assessed as lethal dose. It counts as organism-based. The conditions noted are these: in vivo.
The subject of data set [2] is Mus musculus. Put plainly: Anti-obesity activity in high-fat diet induced obesity model of C57BL/6J mouse assessed as body weight loss at 20 mg/kg/day, po administered once daily for 14 days relative to control. The format is functional. The conditions noted are these: time 14 day.
Data set [3] relates to Mus musculus. Put plainly: Anti-obesity activity in high-fat diet induced obesity model of C57BL/6J mouse assessed as body weight loss at 40 mg/kg/day, ip administered once daily for 14 days relative to control. The format is functional. The conditions noted are these: time 14 day.
Data set [4] concerns Mus musculus. As to the kind of experiment: Anti-obesity activity in male C57BL/6 mouse model of high-fat diet induced obesity assessed as body weight change at 50 mg/kg, po administered once a day for 8 weeks relative to control. It counts as functional.
For data set [5], the system named is Mus musculus. Put plainly: Anti-obesity activity in male C57BL/6 mouse model of high-fat diet induced obesity assessed as body weight change at 15 mg/kg, ip administered once a day for 8 weeks relative to control. The format is functional.
A short description of data set [6]: Inhibition of V-ATPase in bovine chromaffin granules incubated for 1 hrs by absorbance based assay. The format is subcellular, Bos taurus, Chromaffin granule.
Data set [7] deals with Mus musculus. As to the kind of experiment: Anti-obesity activity in male C57BL/6 mouse model of high-fat diet induced obesity assessed as body weight change at 100 mg/kg, po administered once a day for 9 weeks relative to control. It counts as functional.
Data set [8] relates to Mus musculus. As to the kind of experiment: Anti-obesity activity in male C57BL/6 mouse model of high-fat diet induced obesity assessed as body weight change at 50 mg/kg, ip administered every other day for 5 weeks relative to control. The format is functional.
For data set [9], the system named is Mus musculus. As to the kind of experiment: Anti-obesity activity in female C57BL/6 mouse model of high-fat diet induced obesity assessed as body weight change at 0.005 % (w/v) administered orally for 16 weeks relative to control. The conditions noted are these: route po. The format is functional.
Data set [10] concerns Mus musculus. Put plainly: Anti-obesity activity in Swiss male mouse model of high-fat diet induced obesity assessed as body weight change at 10 mg/kg, po administered for 15 weeks relative to control. It counts as functional.
Data set [11] deals with Mus musculus. As to the kind of experiment: Anti-obesity activity in high-fat diet induced C57BL/6 obese mouse model assessed as body weight change at 30 mg/kg, po administered once daily for 10 weeks relative to control. The format is functional.
Data set [12] relates to Mus musculus. As to the kind of experiment: Anti-obesity activity in male C57BL/6 mouse model of high-fat diet induced obesity assessed as body weight change at 30 mg/kg, po administered once a day for 10 weeks relative to control. It counts as functional.
Data set [13] relates to Mus musculus. Put plainly: Anti-obesity activity in male C57BL/6 mouse model of high-fat diet induced obesity assessed as body weight change at 20 mg/kg, po administered once a day for 8 weeks relative to control. The format is functional.
The target in data set [14] is T1, Dihydrolipoyllysine-residue acetyltransferase component of pyruvate dehydrogenase complex, mitochondrial (Homo sapiens, UniProt P10515).
T1 sequence (P10515 whole entry): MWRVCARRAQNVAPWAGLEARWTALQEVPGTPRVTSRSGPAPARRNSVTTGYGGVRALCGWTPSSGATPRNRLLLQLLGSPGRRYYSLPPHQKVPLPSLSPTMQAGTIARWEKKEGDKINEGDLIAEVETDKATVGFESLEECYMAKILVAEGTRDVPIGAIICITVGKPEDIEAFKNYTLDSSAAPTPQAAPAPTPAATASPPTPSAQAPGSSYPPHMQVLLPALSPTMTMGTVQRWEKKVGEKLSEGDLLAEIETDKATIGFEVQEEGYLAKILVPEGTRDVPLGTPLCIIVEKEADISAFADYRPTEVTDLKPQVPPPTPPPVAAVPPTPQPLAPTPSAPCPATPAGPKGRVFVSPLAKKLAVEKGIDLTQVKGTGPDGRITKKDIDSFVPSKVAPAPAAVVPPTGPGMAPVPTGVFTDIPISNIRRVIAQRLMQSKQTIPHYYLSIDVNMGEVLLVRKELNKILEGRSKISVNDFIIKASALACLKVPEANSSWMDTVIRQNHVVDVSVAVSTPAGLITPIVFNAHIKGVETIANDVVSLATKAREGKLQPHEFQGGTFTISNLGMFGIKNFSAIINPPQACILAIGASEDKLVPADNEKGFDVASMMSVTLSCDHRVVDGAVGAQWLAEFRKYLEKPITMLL
As to the kind of experiment: Binding affinity to recombinant GFP fused […] (unknown origin) by Lip-SMap analysis.

The test system of data set [15] is Mus musculus. Put plainly: Anti-obesity activity in male C57BL/6 mouse model of high-fat diet induced obesity assessed as body weight change at 2.5 mg/kg, ip administered once a day for 8 weeks relative to control. The format is functional.
The subject of data set [16] is Mus musculus. Put plainly: Anti-obesity activity in male C57BL/6 mouse model of high-fat diet induced obesity assessed as body weight change at 0.002 mg/kg, ip administered once a day for 8 weeks relative to control. It counts as functional.
The test system of data set [17] is Mus musculus. Put plainly: Anti-obesity activity in male C57BL/6 mouse model of high-fat diet induced obesity assessed as body weight change at 1.25 mg/kg, ip administered once a day for 21 days relative to control. It counts as functional. The conditions noted are these: time 21 day.
For data set [18], the system named is Mus musculus. Put plainly: Anti-obesity activity in high-fat diet induced C57BL/6J obese mouse model assessed as body weight change at 150 mg/kg, po administered once daily for 4 weeks relative to control. It counts as functional.
Data set [19] concerns Mus musculus. Put plainly: Anti-obesity activity in male C57BL/6 mouse model of high-fat diet induced obesity assessed as body weight change at 150 mg/kg, po administered once a day for 4 weeks relative to control. It counts as functional.
In data set [20] the test system is Mus musculus. As to the kind of experiment: Anti-obesity activity in male C57BL/6 mouse model of high-fat diet induced obesity assessed as body weight change at 30 mg/kg, po administered once a day for 8 weeks relative to control. It counts as functional.

Usually LD50 stands for the dose expected to kill half of the subjects tested. Consider `CC1(C)[C@@H](O)C(O)=C[C@]2(C)[C@H]3C(=O)C=C4[C@@H]5C[C@@](C)(C(=O)O)CC[C@]5(C)CC[C@@]4(C)[C@]3(C)CC[C@@H]12`, for which the LD50 in data set [1] was 940 mg/kg. Also, the Activity in data set [2] was determined as 26%; in data set [3], 20%.
On to `COc1ccc(-c2coc3cc(O)ccc3c2=O)cc1` [FORMONONETIN], for which the Activity in data set [4] is listed as 18.8%.
On to `O=C(/C=C/c1ccc(O)c(O)c1)c1ccc(O)cc1O` [BUTEIN], for which, in data set [5], the Activity turned out to be 42.9%.
The IC50 is the midpoint of a concentration-inhibition curve. The low end stands for greater potency in that assay, the high end for weaker potency in that assay. The compound `COc1cc2c(O)c3c(c(-c4ccc5c(c4)OCO5)c2cc1OC)C(=O)OC3` [DIPHYLLIN] came in with an IC50 in data set [6] of 17 nM. Besides, in data set [7], the Activity came to 13.7%.
Turning to `O=Cc1c(-c2nc3ccccc3c(=O)[nH]2)[nH]c2ccccc12`, the Activity in [8] is -11.8%.
Take `CC1(C)CC[C@]2(C(=O)O)CC[C@]3(C)C(=CC[C@@H]4[C@@]5(C)CC[C@H](O)C(C)(C)[C@@H]5CC[C@]43C)[C@@H]2C1` [OLEANOLIC_ACID]: the figures for the Activity in data set [9] and in data set [10] were 45% and 71.9%, respectively.
With `O=c1oc2cc(O)ccc2c2ccc(O)cc12`, the Activity in [11] is 42.7%; in data set [12] it was 30.8%.
In the case of `C=C1C(=O)O[C@@H]2C[C@@]3(C)CCCC(=C)[C@@H]3C[C@H]12` [ISOALANTOLACTONE], the Activity in data set [13] amounted to 44.1%.
The term Kd denotes the concentration at which binding is half-saturated. Turning to `CC(C)=CCC[C@]1(C)[C@@H](CC=C(C)C)C[C@]2(CC=C(C)C)C(=O)C(CC=C(C)C)=C(O)[C@@]1(C(=O)C(C)C)C2=O`, in data set [14], the Kd amounted to 578 nM. For the same compound, the Activity in data set [15] was -13.7%.
For `CC1=C(CO)C(=O)O[C@@H]([C@@H](C)[C@H]2CC[C@H]3[C@@H]4C[C@H]5O[C@]56[C@@H](O)C=CC(=O)[C@]6(C)[C@H]4CC[C@]23C)C1` [WITHAFERIN A], the values for the Activity in data set [16] and in [17] were 30.5% and 0%, respectively.
As to `CC1(C)C=Cc2c(ccc3c2OC[C@@H](c2ccc(O)cc2O)C3)O1` [GLABRIDIN], the Activity is -13.2% in data set [18] and -16.7% in [19].
With `CC1(C)[C@@H](O)CC[C@]2(C)[C@H]3C(=O)C=C4[C@@H]5C[C@@](C)(C(=O)O)CC[C@]5(C)CC[C@@]4(C)[C@]3(C)CC[C@@H]12` [ENOXOLONE], the Activity in [20] came to 30.2%.
